Data reported in patent US20190330141A1, “Compositions With A Cooling Effect” (The Procter & Gamble Company, priority 2018, published 2019).
pEC50: −log10 of the molar value. Structures can show the parent of a compound that is named as a salt. Where two headings read alike, the source gives them in different places.

Tests used:
[1] = concentration where the cooling effect could be clearly recognized; cited from earlier work
[2] = target: T1, human TRPM8 (Homo sapiens, UniProt Q7Z2W7); experiment: TRPM8 Protocol-FLIPR Assay (intracellular Ca2+ in transfected HEK-293 cells); assay type: cell-based; conditions: for EC50 values compared with Comp 4: comparison with the EC50 value of Comp 4
T1 construct: expressed in transfected cells; host or cells: HEK-293
T1 sequence (Q7Z2W7 whole entry): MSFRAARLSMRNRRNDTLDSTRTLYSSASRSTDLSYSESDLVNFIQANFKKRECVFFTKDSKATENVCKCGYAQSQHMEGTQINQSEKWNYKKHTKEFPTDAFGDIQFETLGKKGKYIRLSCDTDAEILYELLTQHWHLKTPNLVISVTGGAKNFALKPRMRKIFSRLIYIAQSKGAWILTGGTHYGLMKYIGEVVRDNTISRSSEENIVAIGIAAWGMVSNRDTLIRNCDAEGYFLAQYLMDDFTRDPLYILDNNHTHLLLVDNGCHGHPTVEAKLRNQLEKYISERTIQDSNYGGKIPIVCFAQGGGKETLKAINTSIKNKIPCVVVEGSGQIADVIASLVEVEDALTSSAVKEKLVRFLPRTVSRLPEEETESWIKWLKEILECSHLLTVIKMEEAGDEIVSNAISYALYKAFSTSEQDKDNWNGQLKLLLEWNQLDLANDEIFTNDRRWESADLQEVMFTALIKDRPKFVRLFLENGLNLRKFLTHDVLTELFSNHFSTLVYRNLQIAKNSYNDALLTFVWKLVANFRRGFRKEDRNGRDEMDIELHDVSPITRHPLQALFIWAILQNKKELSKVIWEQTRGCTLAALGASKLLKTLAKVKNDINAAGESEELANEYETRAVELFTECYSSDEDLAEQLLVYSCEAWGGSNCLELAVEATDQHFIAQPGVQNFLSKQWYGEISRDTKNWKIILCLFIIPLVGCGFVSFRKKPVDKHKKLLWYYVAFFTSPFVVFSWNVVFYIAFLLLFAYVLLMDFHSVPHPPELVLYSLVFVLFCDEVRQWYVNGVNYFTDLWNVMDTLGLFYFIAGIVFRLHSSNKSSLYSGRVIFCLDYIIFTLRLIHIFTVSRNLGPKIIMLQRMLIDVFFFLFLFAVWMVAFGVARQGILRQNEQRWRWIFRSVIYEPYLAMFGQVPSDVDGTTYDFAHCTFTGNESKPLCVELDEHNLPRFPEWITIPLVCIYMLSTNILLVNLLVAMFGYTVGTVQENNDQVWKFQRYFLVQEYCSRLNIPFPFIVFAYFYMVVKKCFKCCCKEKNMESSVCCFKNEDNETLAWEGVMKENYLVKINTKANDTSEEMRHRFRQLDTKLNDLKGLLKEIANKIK
Method: To determine whether TRPM8 is activated, the intracellular calcium ion (Ca^2+) level was measured from transfected cells with the TRPM8 receptor sequence (SEQ ID NO: 1). HEK-293 (human embryonic kidney) cells stably transfected with human TRPM8 were grown in 15 mL growth medium (high glucose DMEM (Dulbecco's Modification of Eagle's Medium) supplemented with 10% FBS (fetal bovine serum), 100 μg/mL penicillin/streptomycin, 5 μg/mL blasticindin, and 100 μg/mL zeocin) in a 75 cm^2 flask for 3 days at 37° C. in a mammalian cell culture incubator (Forma Scientific Model 3110, Marietta, Ohio) set at 5% CO2. Cells were detached with addition of 2 mL of trypsin-EDTA buffer (GIBCO® 25200, Invitrogen, Grand Island, N.Y.) for about 2-3 min. Trypsin was inactivated by addition of 8 mL growth medium. Cells were transferred to a 50 mL tube and centrifuged at 850 rpm for 3 minutes to remove medium. After centrifugation, a pellet of cells was formed in the bottom of the tube separating them from the supernatant solution. The supernatant was discarded and the cell pellet was suspended in 1 mL of fresh growth medium to which 5 μL (12.5 μg) of Fluo-4 AM (Molecular Probes, Inc., Eugene, Oreg.) calcium indicator was added and incubated for 30 min with gentle shaking. Fluo-4 AM is a fluorescent dye used for quantifying cellular Ca^2+ concentrations in the 100 nM to 1 μM range. At the end of 30 minutes, 45 mL of assay buffer (1×HBSS (Hank's Balanced Salt Solution), 20 mM HEPES (4-(2-Hydroxyethyl)-1-piperazineethanesulfonic acid)) was added to wash cells and the resulting mixture was then centrifuged at 850 rpm for 3 minutes at 20° C. to remove excess buffer and Fluo-4 AM calcium indicator.
The pelleted cells were re-suspended in 10 mL assay buffer and 90 μL aliquots (50,000 cells) per well delivered to a 96-well assay plate containing 10 μL of test compounds (1 mM in assay buffer, final concentration 100 μM) or buffer control and incubated at room temperature for 30 minutes. After 30 minutes, a plate (Falcon 353219, Corning Corning N.Y.) was placed into a fluorometric imaging plate reader (FLIPR384 from Molecular Devices, Sunnyvale, Calif.) and basal fluorescence recorded (excitation wave length 488 nm and emission wave length 510 nm). Then 20 μL of 100 mM of TRPM8 agonist WS5 coolant in the assay buffer was added and fluorescence recorded. For determining the direct effect of test compounds on TRPM8, fluorescence was measured immediately after addition of each compound. Additional discussion of the FLIPR method can be found in Smart et al., Characterization using FLIPR of human vanilloid VR1 receptor pharmacology, European Journal of Pharmacology 417, 51-58 (2001) and Liu et al., Development and validation of a platelet calcium flux assay using a fluorescent imaging plate reader, Analytical Biochemistry 357, 216-224 (2006).
The magnitude of the fluorescence of the active-treated cells was compared to the magnitude of the fluorescence from a benchmark agonist (WS-5), as described above. The percentage of fluorescence as a function of active dose was plotted and a sigmoidal curve was generated. Curve fitting from this dose-response curve yielded the value for TRPM8 EC50 in μM found in TABLE 8.
TRPM8 activation was determined by measuring intracellular calcium ion (Ca^2+) level from transfected cells with the TRPM8 receptor gene, as described in EXAMPLE 12, the results of which are shown in TABLE 8. EC50 values are provided in column 3 of TABLE 8, which measured the concentration of activating compound needed to […]. […]

[3] = HEK-293 cells stably transfected with human TRPM8, fluorescence compared to benchmark agonist WS-5, dose-response curve fit, read-out: TRPM8 Activity EC50
[4] = less than about 1 μM, 0.6 μM, or the EC50 value of Comp 3, read-out: EC50 values

SMILES | pEC50 [2, 3] | pEC50 [2, 4] | cooling threshold [1] | EC50 values compared with Comp 4 [2]
CC(C)[C@@H]1CC[C@@H](C)C[C@H]1O [L-menthol] | – | – | about 800 ppb | –
N[C@H](CNC(=O)c1ccccc1)c1ccccc1 [Comp 1, reference compound] | < 5.00 | – | – | –
NCC(=O)N[C@H](CNC(=O)c1ccccc1)c1ccccc1 [Compound 1a, (S)-2-((2-benzamido-1-phenylethyl)amino)-2-oxoethan-1-aminium chloride] | 6.18 | > 6.00 | – | –
Cc1ccc(C(C)C)c(C(=O)NC[C@@H](NC(=O)CN)c2ccccc2)c1.Cl [Compound 6a] | – | – | – | about the same or less than the EC50 value of Comp 4
CC(C)=CCC/C(C)=C/C(=O)NC[C@@H](NC(=O)[C@@H](C)N)c1ccccc1 [Compound 4b, (R)-1-(((S)-2-((E)-3,7-dimethylocta-2,6-dienamido)-1-phenylethyl)amino)-1-oxopropan-2-aminium chloride] | 5.84 | – | – | –
C[C@@H](N)C(=O)N[C@H](CNC(=O)c1cccnc1)c1ccccc1 [Compound 2c, (R)-1-(((S)-2-(nicotinamido)-1-phenylethyl)amino)-1-oxopropan-2-aminium chloride] | 4.55 | – | – | –
CC(C)[C@@H]1CC[C@@H](C)C[C@@H]1O [Compound 1-neomenthol, 1-neomenthol] | – | – | about 3,000 ppb | –
C[C@@H](N)C(=O)N[C@H](CNC(=O)c1ccccc1)c1ccccc1 [Compound 1c, (R)-1-(((S)-2-benzamido-1-phenylethyl)amino)-1-oxopropan-2-aminium chloride] | 6.24 | > 6.00 | – | –
Cc1ccc(C(C)C)c(OC(=O)C[C@@H](N)c2ccccc2)c1 [Comp 2, reference compound] | 4.92 | – | – | –
CC(C)[C@@H]1CC[C@@H](C)C[C@@H]1O [d-neomenthol] | – | – | about 25,000 ppb | –
CC(C)=CCC/C(C)=C/C(=O)NC[C@@H](NC(=O)CN)c1ccccc1 [Compound 4a, (S,E)-2-((2-(3,7-dimethylocta-2,6-dienamido)-1-phenylethyl)amino-2-oxoethan-1-aminium chloride] | 5.92 | – | – | –
CC(C)C(C)(C(=O)OC[C@@H](NC(=O)[C@H](C)N)c1ccccc1)C(C)C [Compound 8a, (S)-2-((S)-2-aminopropanamido)-2-phenylethyl 2-isopropyl-2,3-dimethylbutanoate hydrochloride] | 6.38 | > 6.00 | – | –
CC(C)[C@@H]1CC[C@@H](C)C[C@H]1C(=O)Nc1ccc(CC#N)cc1 [Comp 3, reference compound] | 6.22 | – | – | –

The remaining molecules from weak to strong by pEC50 [2, 3], led by results:

pEC50 [2, 3] | pEC50 [2, 4] | SMILES | cooling threshold [1] | EC50 values compared with Comp 4 [2]
6.64 | > 6.00 | Cc1ccc(C(C)C)c(OC(=O)C[C@@H](NC(=O)CN)c2ccccc2)c1 [Compound 7a, (R)-2-((3-(2-isopropyl-5-methylphenoxy)-3-oxo-1-phenylpropyl)amino-2-oxoethan-1-aminium chloride] | – | –
6.81 | > 6.00 | Cc1ccc(C(C)C)c(C(=O)NC[C@@H](N)c2ccccc2)c1 [Compound 6b, (S)-2-(2-isopropyl-5-methylbenzamido)-1-phenylethan-1-aminium chloride] | – | –
7.22 | > 6.00 | Cc1ccc(C(C)C)c(OC(=O)C[C@@H](NC(=O)[C@@H](C)N)c2ccccc2)c1 [Compound 7b, (R)-1-(((R)-3-(2-isopropyl-5-methylphenoxy)-3-oxo-1-phenylpropyl)amino)-1-oxopropan-2-aminium chloride] | – | –
7.24 | > 6.00 | CC(C)C(C)(C(=O)OC[C@@H](NC(=O)[C@@H](C)N)c1ccccc1)C(C)C [Compound 8b, (S)-2-((R)-2-aminopropanamido)-2-phenylethyl 2-isopropyl-2,3-dimethylbutanoate hydrochloride] | – | –
7.77 | > 6.00 | NCC(=O)O[C@H](CNC(=O)C12CC3CC(CC(C3)C1)C2)c1ccccc1 [Compound 11a, (S)-2-((3S,5S,7S)-adamantane-1-carboxamido)-1-phenylethyl glycinate hydrochloride] | – | –
8.05 | – | CC(C)[C@@H]1CC[C@@H](C)C[C@H]1C(=O)NC[C@@H](NC(=O)[C@H](C)N)c1ccccc1 [Comp 4, reference compound] | – | –
8.11 | > 6.00 | CC(C)C(C)(C(=O)NC[C@@H](OC(=O)CN)c1ccccc1)C(C)C.Cl [Compound 10a, (S)-2-(2-isopropyl-2,3-dimethylbutanamido)-1-phenylethyl glycinate hydrochloride] | – | about the same or less than the EC50 value of Comp 4
8.18 | > 6.00 | Cc1ccc(C(C)C)c(C(=O)NC[C@@H](NC(=O)[C@H](C)N)c2ccccc2)c1.Cl [Compound 6d, (S)-1-(((S)-2-(2-isopropyl-5-methylbenzamido)-1-phenylethyl)amino)-1-oxopropan-2-aminium chloride] | – | about the same or less than the EC50 value of Comp 4
8.49 | > 6.00 | Cc1ccc(C(C)C)c(C(=O)NC[C@@H](NC(=O)[C@@H](C)N)c2ccccc2)c1.Cl [Compound 6c, (R)-1-(((S)-2-(2-isopropyl-5-methylbenzamido)-1-phenylethyl)amino)-1-oxopropan-2-aminium chloride] | – | about the same or less than the EC50 value of Comp 4
8.72 | > 6.00 | Cc1ccc(C(C)C)c(C(=O)NC[C@@H](NC(=O)CN)c2ccccc2)c1.Cl [Compound 6a, (S)-2-((2-(2-isopropyl-5-methylbenzamido)-1-phenylethyl)amino-2-oxoethan-1-aminium chloride] | – | –
